Measured values published in the NIST ThermoML archive (doi:10.1021/je030168a).
Numbers after ± are expanded uncertainties.

How the values were obtained:
[1] = Liquid
[2] = excess molar enthalpy (molar enthalpy of mixing); xn = mol fraction of the nth substance listed; details: 298.15 K, 101.3 kPa, Liquid, Flow calorimetry

CCCCBr [1-bromobutane]
[1]
Details	vapor or sublimation pressure [kPa]
278.15 K	1.86 ± 0.022
283.15 K	2.48 ± 0.023
288.15 K	3.265 ± 0.026
293.15 K	4.261 ± 0.029
298.15 K	5.506 ± 0.033
303.15 K	7.039 ± 0.038
308.15 K	8.899 ± 0.043
313.15 K	11.15 ± 0.05
318.15 K	13.87 ± 0.059
323.15 K	17.09 ± 0.069

CCCCBr [1-bromobutane] + CCCCCCCCO
[2]
Details	excess molar enthalpy [kcal/mol]
x2 = 0.025	0.087 ± 0.00191
x2 = 0.0571	0.144 ± 0.00311
x2 = 0.1224	0.201 ± 0.0043
x2 = 0.1949	0.233 ± 0.00502
x2 = 0.2361	0.244 ± 0.00526
x2 = 0.276	0.25 ± 0.00526
x2 = 0.3205	0.253 ± 0.0055
x2 = 0.367	0.252 ± 0.0055
x2 = 0.4661	0.24 ± 0.00526
x2 = 0.5784	0.212 ± 0.00454
x2 = 0.7064	0.165 ± 0.00359
x2 = 0.8484	0.0956 ± 0.00215
x2 = 0.9311	0.0488 ± 0.0012

CCCCCCCCCCO [decan-1-ol]
[1], Closed cell (Static) method
Details	vapor or sublimation pressure [kPa]
308.15 K	0.001
313.15 K	0.004
318.15 K	0.007 ± 0.01
323.15 K	0.011 ± 0.01

CCCCCCCCO [octan-1-ol]
[1]
Details	vapor or sublimation pressure [kPa]
288.15 K	0.001
293.15 K	0.003
298.15 K	0.007 ± 0.01
303.15 K	0.011 ± 0.01
308.15 K	0.019 ± 0.01
313.15 K	0.031 ± 0.01
318.15 K	0.051 ± 0.01
323.15 K	0.08 ± 0.01
